Results published in PubChem BioAssay (NCI).
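These data come from cells grown in 96-well plates and exposed to compound for 48 hours at five concentrations. At the TGI there is no net growth.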

What was measured:
Experiment in all cases: NCI anticancer screen, dose series, 48 h
[1] = tested on: KM12 colon
[2] = tested on: OVCAR-3 ovarian
[3] = tested on: HOP-62 NSCLC
[4] = tested on: UO-31 renal
[5] = tested on: TK-10 renal
[6] = tested on: SNB-19 CNS
[7] = tested on: UACC-257 melanoma
[8] = tested on: EKVX NSCLC
[9] = tested on: LXFL 529 NSCLC
[10] = tested on: UACC-62 melanoma
[11] = tested on: M14 melanoma
[12] = tested on: NCI-H522 lung
[13] = tested on: DLD-1 colon
[14] = tested on: SK-OV-3 ovarian
[15] = tested on: U251 CNS
[16] = tested on: HL-60(TB) leukemia
[17] = tested on: SF-295 CNS
[18] = tested on: NCI-H460 lung
[19] = tested on: SF-268 CNS
[20] = tested on: MOLT-4 leukemia
[21] = tested on: SF-539 CNS
[22] = tested on: SK-MEL-28 melanoma
[23] = tested on: RPMI-8226 leukemia
[24] = tested on: KM20L2 colon
[25] = tested on: RXF-631 renal
[26] = tested on: HCT-15 colon
[27] = tested on: A498 renal
[28] = tested on: OVCAR-5 ovarian
[29] = tested on: DMS 273 small cell lung
[30] = tested on: OVCAR-8 ovarian
[31] = tested on: IGROV1 ovarian
[32] = tested on: HCT-116 colon
[33] = tested on: SK-MEL-5 melanoma
[34] = tested on: A549 NSCLC
[35] = tested on: M19-MEL melanoma
[36] = tested on: SNB-75 CNS
[37] = tested on: K-562 leukemia
[38] = tested on: HOP-92 NSCLC
[39] = tested on: SNB-78 CNS
[40] = tested on: OVCAR-4 ovarian
[41] = tested on: HCC-2998 colon
[42] = tested on: CAKI-1 renal
[43] = tested on: 786-0 renal
[44] = tested on: NCI-H23 lung
[45] = tested on: CCRF-CEM leukemia
[46] = tested on: LOX IMVI melanoma
[47] = tested on: RXF 393 renal
[48] = tested on: MALME-3M melanoma
[49] = tested on: SN12C renal
[50] = tested on: ACHN renal
[51] = tested on: SW-620 colon
[52] = tested on: SK-MEL-2 melanoma
[53] = tested on: COLO 205 colon
[54] = tested on: DMS 114 small cell lung
[55] = tested on: SR leukemia
[56] = tested on: NCI-H226 lung

Cc1nc2ccccc2nc1CC(=O)C(=O)Nc1ccc(Cl)cc1Cl
TGI [1]: > 100 µM
TGI [2]: > 100 µM
TGI [3]: > 100 µM
TGI [4]: > 100 µM
TGI [5]: > 100 µM
TGI [6]: > 100 µM
TGI [7]: > 100 µM
TGI [8]: > 100 µM
TGI [9]: > 100 µM
TGI [10]: > 100 µM
TGI [11]: > 100 µM
TGI [12]: > 100 µM
TGI [13]: > 100 µM
TGI [14]: > 100 µM
TGI [15]: > 100 µM
TGI [16]: > 100 µM
TGI [17]: > 100 µM
TGI [18]: > 100 µM
TGI [19]: > 100 µM
TGI [20]: > 100 µM
TGI [21]: > 100 µM
TGI [22]: > 100 µM
TGI [23]: > 100 µM
TGI [24]: > 100 µM
TGI [25]: > 100 µM
TGI [26]: > 100 µM
TGI [27]: > 100 µM
TGI [28]: > 100 µM
TGI [29]: > 100 µM
TGI [30]: > 100 µM
TGI [31]: > 100 µM
TGI [32]: > 100 µM
TGI [33]: > 100 µM
TGI [34]: > 100 µM
TGI [35]: > 100 µM
TGI [36]: > 100 µM
TGI [37]: > 100 µM
TGI [38]: > 100 µM
TGI [39]: > 100 µM
TGI [40]: > 100 µM
TGI [41]: > 100 µM
TGI [42]: > 100 µM
TGI [43]: > 100 µM
TGI [44]: > 100 µM
TGI [45]: > 100 µM
TGI [46]: > 100 µM
TGI [47]: > 100 µM
TGI [48]: > 100 µM
TGI [49]: > 100 µM
TGI [50]: > 100 µM
TGI [51]: > 100 µM
TGI [52]: > 100 µM
TGI [53]: > 100 µM

COC(=O)CC(=O)OSc1ccccc1
TGI [1]: > 100 µM
TGI [2]: 36.4 µM
TGI [3]: 53.4 µM
TGI [4]: 24.7 µM
TGI [5]: > 100 µM
TGI [6]: > 100 µM
TGI [7]: 87.7 µM
TGI [8]: 89.2 µM
TGI [10]: 29.5 µM
TGI [11]: 38.7 µM
TGI [12]: 12.8 µM
TGI [13]: 48 µM
TGI [14]: 46 µM
TGI [15]: 24.1 µM
TGI [17]: 96.3 µM
TGI [18]: > 100 µM
TGI [20]: > 100 µM
TGI [21]: 25.5 µM
TGI [23]: > 100 µM
TGI [24]: 42.2 µM
TGI [25]: 25 µM
TGI [27]: 65 µM
TGI [28]: > 100 µM
TGI [29]: 41 µM
TGI [54]: 25.6 µM
TGI [31]: 20.2 µM
TGI [32]: 26.9 µM
TGI [33]: 87.9 µM
TGI [55]: 42 µM
TGI [34]: 77.3 µM
TGI [37]: > 100 µM
TGI [38]: 67.9 µM
TGI [40]: > 100 µM
TGI [41]: 95 µM
TGI [56]: 64 µM
TGI [44]: 82.9 µM
TGI [45]: > 100 µM
TGI [46]: 26.9 µM
TGI [47]: 25.3 µM
TGI [48]: > 100 µM
TGI [49]: 27.1 µM
TGI [50]: 56.5 µM
TGI [51]: 38.4 µM
TGI [52]: 97.5 µM
TGI [53]: 38.2 µM
